The results in this text go back to patent US20260315434A1, “USE OF GUAIACOL SESQUITERPENE LACTONE DERIVATIVES” (NANJING UNIVERSITY OF CHINESE MEDICINE, priority 2023, published 2026).

Data set [1] can be described thus: Water solubility testing of compounds (HPLC). The settings on record: deionized water, 37 °C.
Data set [2] can be described thus: Conversion (release) of prodrug salts to parent compound in HEPES buffer pH 7.4. The following applies: hepes buffer, pH 7.4, HEPES pH 7.4, 37 °C, read-out: Release rate (conversion to Compound 1). Format: in vitro ADME. As to the method:
(§1) Pharmaceutically acceptable salts of guaiane-type sesquiterpene lactone derivatives were selected and evaluated for their conversion rates to Compound 1 and Compound 83 in plasma and HEPES buffer, with results shown in Tables 2-1, 2-2, 3-1, and 3-2.
Experimental Method: Preparation of HEPES 7.4 Solution: Dissolve 1.6 g NaCl, 0.074 g KCl, 0.027 g Na2HPO4, 0.2 g glucose, and 1 g 4-(2-Hydroxyethyl)piperazine-1-ethanesulfonic acid (HEPES) solution in 90 mL distilled water. Adjust the pH to 7.4 using 0.5 M NaOH, then dilute to a final volume 100 mL with distilled water.
(§2) Sample Analysis: Dissolve 0.6 mg of the compound in 250 μL of deionized water separately. Add 250 μL of mouse serum or HEPES 7.4 solution to the sample, incubate at a constant temperature of 37° C., and collect samples at different time points. Pipette 20 μL of the sample to an EP tube, add 60 μL of methanol, vortex to mix thoroughly, and centrifuge at 12,000 rpm at 4° C. for 10 min. At 1 h, 2 h, 4 h, 8 h, and 12 h respectively, collect the supernatant for HPLC analysis. Inject 10 μL of sample and record the corresponding peak areas. Chromatographic conditions: Hanbang C18 column (4.6×250 mm, 5 μm); mobile phase: acetonitrile: […] ammonium formate solution=60:40; flow rate 1.0 mL/min; detection wavelength 210 nm; column temperature 30° C.

Data set [3] in a line: Conversion (release) of prodrug salts to parent compound in mouse plasma. Type of data set: in vitro ADME. The following applies: mouse, plasma, 37 °C, read-out: Release rate (conversion to Compound 1). As to the method: as §1
Plasma Preparation: Collect mouse plasma into an EP tube pre-loaded with sodium heparin, centrifuge at 8000 rpm for 10 minutes at 4° C., and then collect the supernatant.
as §2

For data set [4], the system named is T cells / MDSCs. Kind of data set: Promotion of T cell proliferation in a co-culture model of MDSCs and T cells. Type of data set: cell-based, mouse. The settings on record: for activation at 1 µM: Mus musculus, T-cell, 12 h, read-out: T-cell proliferation rate (%), 1 μM, MDSCs treated 12 hours, co-culture of MDSCs and T cells, compared to the control group. As to the method: Under sterile conditions, the tibia was removed, both ends of the bone were cut, and bone marrow was repeatedly flushed into a 15 mL centrifuge tube using a 1 mL syringe filled with culture medium. Centrifuge at 1600 rpm for 5 min to collect bone marrow cells. […] The spleen cell suspension was then transferred into a 15 mL centrifuge tube. Centrifuge at 1600 rpm for 5 min to collect T cells. Wash twice with 1×PBS. Resuspend the centrifuged T cells in 1 mL PBS and add 1 mL of 10 μM CFDA-SE solution. Incubate at room temperature for 8 min. […] After drug administration, collect MDSC cells into centrifuge tubes. Centrifuge at 1600 rpm for 5 min, remove supernatant, resuspend in 1 mL fresh medium, and plate. Add 1 mL stimulated activated T cells (1:1 ratio) for 48 h co-culture. After incubation, collect cells into centrifuge tubes, wash twice with PBS, and incubate with Fc antibody at room temperature in the dark for 10 min. Add CD3-labeled flow cytometry antibody and incubate at 4° C. in the dark for 30 min. After incubation, wash cells with PBS, resuspend in 300 μL PBS, and analyze by flow cytometry.

Each structure is given as a SMILES string. Converted amounts (≈) assume the structure as drawn.

`CC(C)N(C[C@@H]1C(=O)O[C@H]2[C@H]1CC[C@@]1(C)C[C@]13CC[C@@](C)(O)[C@H]23)C(C)C` [Compound 12] yielded a Water-solubility in data set [1] of 0.802 mg/mL.

Compound `C[C@@]12CC[C@@H]3[C@H](OC(=O)[C@H]3CN3CCC3)[C@@H]3[C@]1(CC[C@@]3(C)O)C2` [Compound 14] yielded a Water-solubility in data set [1] of 0.460 mg/mL.

Consider `C[C@@]12CC[C@@H]3[C@H](OC(=O)[C@H]3CN3CCC(N4CCCCC4)CC3)[C@@H]3[C@]1(CC[C@@]3(C)O)C2` [Compound 16], for which the Water-solubility in data set [1] came out at 0.285 mg/mL.

For the compound `C[C@@]12CC[C@@H]3[C@H](OC(=O)[C@H]3CN3CCC(N4CCOCC4)CC3)[C@@H]3[C@]1(CC[C@@]3(C)O)C2` [Compound 17], the Water-solubility in data set [1] is reported as 0.942 mg/mL.

Regarding `C[C@@]12CC[C@@H]3[C@H](OC(=O)[C@H]3CN3CCCCC3)[C@@H]3[C@]1(CC[C@@]3(C)O)C2` [Compound 24], in data set [2], the degraded at 1 h is 6.8%, the degraded at 2 h is 15.1%, the degraded at 4 h worked out at 26.7% and the degraded at 8 h came out at 42.8%. For the same compound, the degraded at 12 h in data set [2] is 54%. Besides, in data set [3], the metabolised at 1 h came to 7.7%, the metabolised at 2 h stood at 17.1%, the metabolised at 4 h was 27.7% and the metabolised at 8 h was determined as 47.8%. Besides, in data set [3], the metabolised at 12 h came out at 57.9%. Further, the Water-solubility in data set [1] is recorded as 300.5 mg/mL.

For `C[C@@]12CC[C@@H]3[C@H](OC(=O)[C@H]3CN3CCOCC3)[C@@H]3[C@]1(CC[C@@]3(C)O)C2` [Compound 25], in data set [2], the degraded at 1 h was 6.8%, the degraded at 2 h turned out to be 14.1%, the degraded at 4 h is 26.1% and the degraded at 8 h came to 42.8%. Also, in data set [2], the degraded at 12 h came to 51.8%. In addition, in data set [3], the metabolised at 1 h came to 6.8%, the metabolised at 2 h was 14.1%, the metabolised at 4 h was determined as 25.7% and the metabolised at 8 h was determined as 43.8%. In addition, the metabolised at 12 h in data set [3] is 51.8%. Moreover, the solubility (usually the concentration that dissolves in the medium under given conditions) in data set [1] (water, Water-solubility) is 342 mg/mL (≈ 979 mM).

`CCCN(CCC)C[C@@H]1C(=O)O[C@H]2[C@H]1CC[C@@]1(C)C[C@]13CC[C@@](C)(O)[C@H]23` [Compound 29]: in data set [2], the degraded at 1 h stood at 6.8%, the degraded at 2 h was determined as 14.2%, the degraded at 4 h stood at 24.6% and the degraded at 8 h is 40.2%. Also, the degraded at 12 h in data set [2] worked out at 49.8%. In data set [3], the metabolised at 1 h was found to be 6.8%, the metabolised at 2 h is 14.2%, the metabolised at 4 h worked out at 24.6% and the metabolised at 8 h was found to be 40.2%. In addition, the metabolised at 12 h in data set [3] was 49%. The compound further came in with a Water-solubility in data set [1] of 289.5 mg/mL.

On to `C=C1C(=O)O[C@H]2[C@H]1CCC(C)=C1CC[C@@](C)(OC(=O)NC3CC3)[C@@H]12` [Compound 70], for which, in data set [4], the activation at 1 µM was in the range of 0 to 20%.

In the case of `C=C1C(=O)O[C@H]2[C@H]1CCC(C)=C1CC[C@@](C)(OC(=O)NCCO)[C@@H]12` [Compound 71], in data set [4], the activation at 1 µM was greater than 40%.

As for `C=C1C(=O)O[C@H]2[C@H]1CCC(C)=C1CC[C@@](C)(OC(=O)NCCCO)[C@@H]12` [Compound 72], the activation at 1 µM in data set [4] fell in the range of 20 to 40%.

In the case of `C=C1C(=O)O[C@H]2[C@H]1CCC(C)=C1CC[C@@](C)(OC(=O)NCCCCCO)[C@@H]12` [Compound 73], the activation at 1 µM in data set [4] lay in the range of 20 to 40%.

Take `C=C1C(=O)O[C@H]2[C@H]1CCC(C)=C1CC[C@@](C)(OC(=O)NCCOC)[C@@H]12` [Compound 74]: the activation at 1 µM in data set [4] was greater than 40%.

Consider `C=C1C(=O)O[C@H]2[C@H]1CCC(C)=C1CC[C@@](C)(OC(=O)NCCCOC)[C@@H]12` [Compound 75], for which the activation at 1 µM in data set [4] lay in the range of 20 to 40%.

For `C=C1C(=O)O[C@H]2[C@H]1CCC(C)=C1CC[C@@](C)(OC(=O)NCCOCCO)[C@@H]12` [Compound 76], the activation at 1 µM in data set [4] lay within 20 to 40%.

Regarding `C=C1C(=O)O[C@H]2[C@H]1CCC(C)=C1CC[C@@](C)(OC(=O)NCCN(C)C)[C@@H]12` [Compound 77], the activation at 1 µM in data set [4] lay within 0 to 20%.

As to `C=C1C(=O)O[C@H]2[C@H]1CCC(C)=C1CC[C@@](C)(OC(=O)NCc3ccccc3)[C@@H]12` [Compound 79], the activation at 1 µM in data set [4] fell in the range of 20 to 40%.

As for `C=C1C(=O)O[C@H]2[C@H]1CCC(C)=C1CC[C@@](C)(OC(=O)N(C)C)[C@@H]12` [Compound 80], in data set [4], the activation at 1 µM is 20 to 40%.

With `C=C1C(=O)O[C@H]2[C@H]1CCC(C)=C1CC[C@@](C)(OC(=O)N(CC)CC)[C@@H]12` [Compound 81], the activation at 1 µM in data set [4] was in the range of 20 to 40%.

In the case of `C=C1C(=O)O[C@H]2[C@H]1CCC(C)=C1CC[C@@](C)(OC(=O)N3CCC(C)CC3)[C@@H]12` [Compound 84], the activation at 1 µM in data set [4] was in the range of 20 to 40%.

With `C=C1C(=O)O[C@H]2[C@H]1CCC(C)=C1CC[C@@](C)(OC(=O)N3CCN(C)CC3)[C@@H]12` [Compound 85], the activation at 1 µM in data set [4] was in the range of 0 to 20%.

In the case of `C=C1C(=O)O[C@H]2[C@H]1CCC(C)=C1CC[C@@](C)(OC(=O)N3CCN(CC)CC3)[C@@H]12` [Compound 86], the activation at 1 µM in data set [4] fell in the range of 20 to 40%.

In the case of `C=C1C(=O)O[C@H]2[C@H]1CCC(C)=C1CC[C@@](C)(OC(=O)N3CCOCC3)[C@@H]12` [Compound 87], the activation at 1 µM in data set [4] was greater than 40%.

As for `C=C1C(=O)O[C@H]2[C@H]1CCC(C)=C1CC[C@@](C)(OC(=O)NCC(C)C)[C@@H]12` [Compound 88], in data set [4], the activation at 1 µM lay within 20 to 40%.

With `C=C1C(=O)O[C@H]2[C@H]1CCC(C)=C1CC[C@@](C)(OC(=O)NCC(F)F)[C@@H]12` [Compound 89], the activation at 1 µM in data set [4] was 20 to 40%.

On to `C=C1C(=O)O[C@H]2[C@H]1CCC(C)=C1CC[C@@](C)(OC(=O)N(C)CCC)[C@@H]12` [Compound 90], for which the activation at 1 µM in data set [4] is 20 to 40%.

As to `C=C1C(=O)O[C@H]2[C@H]1CCC(C)=C1CC[C@@](C)(OC(=O)N(CC)CCC)[C@@H]12` [Compound 91], the activation at 1 µM in data set [4] fell in the range of 20 to 40%.

On to `C=C1C(=O)O[C@H]2[C@H]1CCC(C)=C1CC[C@@](C)(OC(=O)NCCCN3CCOCC3)[C@@H]12` [Compound 92], for which, in data set [4], the activation at 1 µM fell in the range of 20 to 40%.

In the case of `C=C1C(=O)O[C@H]2[C@H]1CCC(C)=C1CC[C@@](C)(OC(=O)NCCCN3CCN(C)CC3)[C@@H]12` [Compound 93], the activation at 1 µM in data set [4] was in the range of 20 to 40%.

As to `C=C1C(=O)O[C@H]2[C@H]1CCC(C)=C1CC[C@@](C)(OC(=O)N3CCC(N4CCOCC4)CC3)[C@@H]12` [Compound 94], the activation at 1 µM in data set [4] was 20 to 40%.

Consider `C=C1C(=O)O[C@H]2[C@H]1CCC(C)=C1CC[C@@](C)(OC(=O)NCCN3CCN(C)CC3)[C@@H]12` [Compound 95], for which, in data set [4], the activation at 1 µM fell in the range of 20 to 40%.

For the compound `CC1=C2CC[C@@](C)(OC(=O)N3CCCCC3)[C@@H]2[C@H]2OC(=O)[C@@H](CN3CCCC3)[C@@H]2CC1` [Compound 96], the activation at 1 µM in data set [4] lay within 0 to 20%.

Take `CC1=C2CC[C@@](C)(OC(=O)N3CCCCC3)[C@@H]2[C@H]2OC(=O)[C@@H](CN(C)C)[C@@H]2CC1` [Compound 97]: the activation at 1 µM in data set [4] lay within 0 to 20%.

On to `CC1=C2CC[C@@](C)(OC(=O)N3CCCC3)[C@@H]2[C@H]2OC(=O)C(CN3CCCC3)[C@@H]2CC1` (stereo partly drawn) [compound 104], for which the “T-cell proliferation rate (%)” value in data set [4] (1 μM, MDSCs treated 12 hours, co-culture of MDSCs and T cells, compared to the control group) was “+ (T-cell proliferation rate within the 0-20% range compared to the control group)”.
